The values below come from patent US20100105727A1, “NOVEL BENZAMIDE DERIVATIVES AND PROCESS FOR THE PREPARTION THEREOF” (DONG-A-PHARM. CO., LTD., priority 2007, published 2010).

The structures appear in SMILES notation.

The target in the assay is T1, human 5-HT4 receptor (Homo sapiens, UniProt Q13639).
T1 construct: expressed in transfected cells; host or cells: COS-7
T1 sequence (Q13639 whole entry): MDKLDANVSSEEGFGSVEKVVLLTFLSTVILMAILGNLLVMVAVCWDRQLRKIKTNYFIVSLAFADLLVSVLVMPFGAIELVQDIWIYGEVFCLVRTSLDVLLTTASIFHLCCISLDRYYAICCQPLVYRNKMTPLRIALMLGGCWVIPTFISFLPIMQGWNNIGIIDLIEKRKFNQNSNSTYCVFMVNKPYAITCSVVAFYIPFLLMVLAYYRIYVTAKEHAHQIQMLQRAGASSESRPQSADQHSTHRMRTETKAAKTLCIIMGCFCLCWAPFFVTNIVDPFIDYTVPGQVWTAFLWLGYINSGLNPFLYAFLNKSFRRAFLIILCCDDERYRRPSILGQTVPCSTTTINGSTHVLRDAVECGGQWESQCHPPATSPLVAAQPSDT
The experiment in a line: Binding affinity of compounds for 5-HT4 receptor (radioligand displacement, membrane lysates of COS-7 cells). The conditions noted are these: inhibition of specific binding of 0.595 nM [H3]-AGR113808; COS-7 cell membrane lysates expressing human 5-HT4 receptor. Here is the method:
For this purpose, COS-7 cells expressing the human 5-HT4 receptor were constructed and lysed to obtain cell membrane lysates which were then used in binding assay experiments. For binding assay, the membrane lysates were mixed and incubated with different concentrations of test materials and [H3]-AGR113808. […] After incubation was completed, the reaction products were collected in a GF/B glass fiber filter using a Packard cell harvester, and the bound radioactivity was then determined using a liquid cell scintillation counter (Packard TopCount NXT™, Perkin Elmer). Specific binding of the radioligand to the 5-HT4 receptor was calculated by subtracting the non-specific binding of the radioligand from the total radioligand binding. IC50 was calculated from % inhibition of specific binding of the radioligand to the 5-HT4 receptor, with respect to varying concentrations of the test materials.
On the technique in general: In a radioligand displacement assay an active substance lowers the binding of a labelled ligand.
The IC50 is the concentration that inhibits the measured activity by half. A higher IC50 goes with weaker potency in that assay. In turn, `COc1cc(N)c(Cl)cc1C(=O)N[C@H]1CCN(CC2CCN(C(=S)C(C)C)CC2)C[C@H]1OC` (relative stereo) [Compound 30, cis-4-amino-5-chloro-N-[1-((1-(2-methylpropanethioyl)piperidin-4-yl)methyl)-3-methoxypiperidin-4-yl]-2-methoxybenzamide] yielded an IC50 of 108 nM.
Compound `CCOC(=O)N1CCC(CCN2CC[C@H](NC(=O)c3cc(Cl)c(N)cc3OC)[C@H](OC)C2)CC1` (relative stereo) [Compound 3, ethyl 4-[2-(cis-4-(4-amino-5-chloro-2-methoxybenzamido)-3-methoxypiperidin-1-yl)ethyl]piperidine-1-carboxylate] returned an IC50 of 151 nM.
Regarding `COc1cc(N)c(Cl)cc1C(=O)N[C@H]1CCN(CC2CCN(C(=O)OCCCC(C)C)CC2)C[C@H]1OC` (relative stereo) [Compound 13, 4-methyl-pentyl 4-[(cis-4-(4-amino-5-chloro-2-methoxybenzamido)-3-methoxypiperidin-1-yl)methyl]piperidine-1-carboxylate], the IC50 worked out at 146 nM.
As for `COc1cc(N)c(Cl)cc1C(=O)N[C@H]1CCN(CC2CCN(C(=O)CC(C)(C)C)CC2)C[C@H]1OC` (relative stereo) [Compound 26, cis-4-amino-5-chloro-N-[1-((1-(3,3-dimethylbutanoyl)piperidin-4-yl)methyl)-3-methoxypiperidin-4-yl]-2-methoxybenzamide], the figure is 45 nM.
The figure for `COc1cc(N)c(Cl)cc1C(=O)N[C@H]1CCN(CC2CCN(C(=O)OCC(C)C)CC2)C[C@H]1OC` (relative stereo) [Compound 9, isobutyl 4-[(cis-4-(4-amino-5-chloro-2-methoxybenzamido)-3-methoxypiperidin-1-yl)methyl]piperidine-1-carboxylate] is 108 nM; for `COc1cc(N)c(Cl)cc1C(=O)N[C@H]1CCN(CC2CCN(C(C)=S)CC2)C[C@H]1OC` (relative stereo) [Compound 31, cis-4-amino-5-chloro-N-[1-((1-ethanethioylpiperidin-4-yl)methyl)-3-methoxypiperidin-4-yl]-2-methoxybenzamide] it is 214 nM.
As for `CCCC(=O)N1CCC(CN2CC[C@H](NC(=O)c3cc(Cl)c(N)cc3OC)[C@H](OC)C2)CC1` (relative stereo) [Compound 20, cis-4-amino-5-chloro-N-[1-((1-butyrylpiperidin-4-yl)methyl)-3-methoxypiperidin-4-yl]-2-methoxybenzamide], the figure is 106 nM.
Consider `COc1cc(N)c(Cl)cc1C(=O)N[C@H]1CCN(CC2CCN(C(=S)CC(C)C)CC2)C[C@H]1OC` (relative stereo) [Compound 36, cis-4-amino-5-chloro-N-[1-((1-(3-methylbutanethioyl)piperidin-4-yl)methyl)-3-methoxypiperidin-4-yl]-2-methoxybenzamide], for which the half-inhibitory concentration (IC50) came out at 175 nM.
Turning to `COc1cc(N)c(Cl)cc1C(=O)N[C@H]1CCN(CC2CCN(C(=S)CCC(C)C)CC2)C[C@H]1OC` (relative stereo) [Compound 37, cis-4-amino-5-chloro-N-[1-((1-(4-methylpentanethioyl)piperidin-4-yl)methyl)-3-methoxypiperidin-4-yl]-2-methoxybenzamide], the IC50 was found to be 175 nM.
Compound `COc1cc(N)c(Cl)cc1C(=O)N[C@H]1CCN(CC2CCN(C(=O)CCC(C)C)CC2)C[C@H]1OC` (relative stereo) [Compound 27, cis-4-amino-5-chloro-N-[1-((1-(4-methylpentanoyl)piperidin-4-yl)methyl)-3-methoxypiperidin-4-yl]-2-methoxybenzamide] had a concentration for half-maximal inhibition (IC50) of 89 nM.
As for `CCCCC(CC)COC(=O)N1CCC(CN2CC[C@H](NC(=O)c3cc(Cl)c(N)cc3OC)[C@H](OC)C2)CC1` (relative stereo) [Compound 11, 2-ethylhexyl 4-[(cis-4-(4-amino-5-chloro-2-methoxybenzamido)-3-methoxypiperidin-1-yl)methyl]piperidine-1-carboxylate], the figure is 30 nM; as for `COc1cc(N)c(Cl)cc1C(=O)N[C@H]1CCN(CC2CCN(C(=S)C(C)(C)C)CC2)C[C@H]1OC` (relative stereo) [Compound 38, cis-4-amino-5-chloro-N-[1-((1-(2,2-dimethylpropanethioyl)piperidin-4-yl)methyl)-3-methoxypiperidin-4-yl]-2-methoxybenzamide], 217 nM; as for `C=CCOC(=O)N1CCC(CN2CC[C@H](NC(=O)c3cc(Cl)c(N)cc3OC)[C@H](OC)C2)CC1` (relative stereo) [Compound 10, allyl 4-[(cis-4-(4-amino-5-chloro-2-methoxybenzamido)-3-methoxypiperidin-1-yl)methyl]piperidine-1-carboxylate], 93 nM.
With `CCCCCC(=S)N1CCC(CN2CC[C@H](NC(=O)c3cc(Cl)c(N)cc3OC)[C@H](OC)C2)CC1` (relative stereo) [Compound 34, cis-4-amino-5-chloro-N-[1-((1-hexanethioylpiperidin-4-yl)methyl)-3-methoxypiperidin-4-yl]-2-methoxybenzamide], the IC50 worked out at 52 nM.
As for `CCCCCC(=O)N1CCC(CN2CC[C@H](NC(=O)c3cc(Cl)c(N)cc3OC)[C@H](OC)C2)CC1` (relative stereo) [Compound 23, cis-4-amino-5-chloro-N-[1-((1-hexanoylpiperidin-4-yl)methyl)-3-methoxypiperidin-4-yl]-2-methoxybenzamide], the figure is 61 nM.
The figure for `CCCC(=S)N1CCC(CN2CC[C@H](NC(=O)c3cc(Cl)c(N)cc3OC)[C@H](OC)C2)CC1` (relative stereo) [Compound 35, cis-4-amino-5-chloro-N-[1-((1-butanethioylpiperidin-4-yl)methyl)-3-methoxypiperidin-4-yl]-2-methoxybenzamide] is 148 nM; for `COc1cc(N)c(Cl)cc1C(=O)N[C@H]1CCN(CC2CCN(C(=O)OC(C)C)CC2)C[C@H]1OC` (relative stereo) [Compound 8, isopropyl 4-[(cis-4-(4-amino-5-chloro-2-methoxybenzamido)-3-methoxypiperidin-1-yl)methyl]piperidine-1-carboxylate] it is 130 nM.
The figure for `COc1cc(N)c(Cl)cc1C(=O)N[C@H]1CCN(CCC(=O)Nc2ccc3ncccc3c2)C[C@H]1OC` (relative stereo) [Compound 57, cis-4-amino-5-chloro-N-[1-(3-oxo-3-(quinolin-6-ylamino)propyl)-3-methoxypiperidin-4-yl]-2-methoxybenzamide] is 53 nM; for `COc1cc(N)c(Cl)cc1C(=O)N[C@H]1CCN(CCCCCC(=O)Nc2cccc3ncccc23)C[C@H]1OC` (relative stereo) [Compound 58, cis-4-amino-5-chloro-N-[1-(6-oxo-6-(quinolin-5-ylamino)hexyl)-3-methoxypiperidin-4-yl]-2-methoxybenzamide] it is 77 nM; for `COC(=O)N1CCC(CN2CC[C@H](NC(=O)c3cc(Cl)c(N)cc3OC)[C@H](OC)C2)CC1` (relative stereo) [Compound 5, methyl 4-[(cis-4-(4-amino-5-chloro-2-methoxybenzamido)-3-methoxypiperidin-1-yl)methyl]piperidine-1-carboxylate] it is 130 nM.
Turning to `COc1cc(N)c(Cl)cc1C(=O)N[C@H]1CCN(CC2CCN(S(=O)(=O)C(C)C)CC2)C[C@H]1OC` (relative stereo) [Compound 42, cis-4-amino-5-chloro-N-[1-((1-(isopropylsulfonyl)piperidin-4-yl)methyl)-3-methoxypiperidin-4-yl]-2-methoxybenzamide], the IC50 was found to be 47 nM.
With `COc1cc(N)c(Cl)cc1C(=O)N[C@@H]1CCN(CC2CCN(S(C)(=O)=O)CC2)C[C@@H]1OC` [Compound 44, (3S,4R)-4-amino-5-chloro-N-[1-((1-(methylsulfonyl)piperidin-4-yl)methyl)-3-methoxypiperidin-4-yl]-2-methoxybenzamide], the half-inhibitory concentration (IC50) came to 116 nM.
As for `CCC(C)CCOC(=O)N1CCC(CN2CC[C@H](NC(=O)c3cc(Cl)c(N)cc3OC)[C@H](OC)C2)CC1` (relative stereo) [Compound 12, 3-methyl-pentyl 4-[(cis-4-(4-amino-5-chloro-2-methoxybenzamido)-3-methoxypiperidin-1-yl)methyl]piperidine-1-carboxylate], the figure is 192 nM; as for `CCCCC(=S)N1CCC(CN2CC[C@H](NC(=O)c3cc(Cl)c(N)cc3OC)[C@H](OC)C2)CC1` (relative stereo) [Compound 33, cis-4-amino-5-chloro-N-[1-((1-pentanethioylpiperidin-4-yl)methyl)-3-methoxypiperidin-4-yl]-2-methoxybenzamide], 107 nM.
Turning to `CCCC(C)C(=O)N1CCC(CN2CC[C@H](NC(=O)c3cc(Cl)c(N)cc3OC)[C@H](OC)C2)CC1` (relative stereo) [Compound 24, cis-4-amino-5-chloro-N-[1-((1-(2-methylpentanoyl)piperidin-4-yl)methyl)-3-methoxypiperidin-4-yl]-2-methoxybenzamide], the IC50 amounted to 58 nM.
As for `COc1cc(N)c(Cl)cc1C(=O)N[C@H]1CCN(CCC(=O)Nc2ccc3[nH]ccc3c2)C[C@H]1OC` (relative stereo) [Compound 61, cis-4-amino-5-chloro-N-[1-(3-oxo-3-(1H-indol-5-ylamino)propyl)-3-methoxypiperidin-4-yl]-2-methoxybenzamide], the figure is 48 nM; as for `CCSC(=O)N1CCC(CN2CC[C@H](NC(=O)c3cc(Cl)c(N)cc3OC)[C@H](OC)C2)CC1` (relative stereo) [Compound 39, S-ethyl 4-[(cis-4-(4-amino-5-chloro-2-methoxybenzamido)-3-methoxypiperidin-1-yl)methyl]piperidine-1-carbothioate], 47 nM.
